Data taken from the METLIN SMRT retention time set (Domingo-Almenara et al. 2019).

Assay: gradient 5% acetonitrile 3 min, to 50% in 2 min, to 85% in 15 min, held 3 min, 100 µL/min
Details: column: Zorbax Extend-C18 2.1 x 50 mm; eluents: water / acetonitrile, 0.1% formic acid
Summary of the method: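 Retention times come from adduct peaks that were picked computationally and then checked by hand. The standards, pure and pooled in mixtures of ~100 molecules, were run on a Zorbax Extend-C18 column (2.1 × 50 mm, 1.8 μm) at 100 μL/min with water and acetonitrile, each with 0.1% formic acid. Detection was by quadrupole time-of-flight mass spectrometry in positive and negative ionization mode, with a dead volume of 40 μL and a dwell volume of 900 μL.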

Row | RP-LC retention time [s] | Compound
1 | 850 | CCOc1ccccc1NC(=O)Cn1nc(C2CC2)cc1C(=O)N1CCCC1
2 | 867 | Cc1ccc(Cl)cc1NC(=O)NC1CCN(c2ccc(F)cc2)C1=O (configuration not stated)
3 | 592 | O=C(Nc1ccccc1F)N1CCc2nnc(C3CC3)n2CC1
4 | 814 | Cc1ccc(CNC(=O)Cn2c(=O)c(CCC(=O)NCC(C)C)nc3ccccc32)cc1
5 | 741 | Cc1ccccc1Cn1cc(-c2ccncc2)cc1C(=O)NCc1cccs1
6 | 627 | Cc1ccc2nc(CN(C)Cc3ccc(Cl)cc3)cc(=O)n2c1
7 | 821 | CCC(=O)NC1CCc2cccc(OC)c2C1 (configuration not stated)
8 | 909 | O=C(NCCC1CCN(S(=O)(=O)c2ccc(F)cc2)CC1)Nc1ccc(F)cc1
9 | 1000 | O=C(Nc1ccc2c(c1)OCCO2)N1CCN(c2nc3cccnc3n(Cc3ccccc3)c2=O)CC1
10 | 566 | CC(O)CCC(=O)NCCc1nc2ccccc2n1Cc1ccccc1F (configuration not stated)
11 | 648 | CCn1ccc2cc(S(=O)(=O)N3CCC(C(=O)NCCC(C)N4CCCC4)CC3)ccc21 (configuration not stated)
12 | 850 | COc1ccc(-c2noc(C3CC(=O)N(c4ccc(F)cc4)C3)n2)c(OC)c1 (configuration not stated)
13 | 680 | COCCn1ccc2nc(C)c(C(=O)NCc3ccc(C)o3)cc2c1=O
14 | 763 | CCCNC(=O)N1CCC(c2noc(-c3ccccc3)n2)C1 (configuration not stated)
15 | 684 | Cc1ccc(-c2cc(C(=O)NCCCn3ccnc3)c3ccccc3n2)s1
16 | 810 | Cc1ccccc1CC(=O)NC1CCN(c2ccc(F)cc2)C1=O (configuration not stated)
17 | 937 | COCCn1cc(C(=O)Nc2ccccc2)c2nn(-c3ccccc3)c(=O)c-2c1
18 | 757 | CC(C)c1ccc2c(c1)-c1ccccc1S(=O)(=O)N2CC(=O)NCc1ccccn1

Row | RP-LC retention time [s] | Compound
19 | 676 | COCCN1C(=O)Cc2ccccc2C1C(=O)NCc1ccco1 (configuration not stated)
20 | 754 | Cn1cc(-c2cc3n(n2)CCCN3C(=O)CCC(=O)NCc2ccco2)c2ccccc21
21 | 663 | C#Cc1cccc(Nc2ncnc3cc(OCCOC)c(OCCO)cc23)c1
22 | 813 | Cc1nnc(-c2ccc3ccn(CC(=O)NC4CCCCCC4)c3c2)o1
23 | 919 | O=C(Cn1cnc2c(sc3nc(-c4ccccc4)ccc32)c1=O)NCc1cccs1
24 | 548 | O=C1CCC(C(=O)N2CCN(c3ccc(-n4cccn4)nn3)CC2)N1 (configuration not stated)
25 | 707 | CCn1c(=O)c(N2CCC(NC(=O)NCCCOC)CC2)nc2ccccc21
26 | 820 | COc1ccc(NC(=O)C2CC(=O)N(CCc3c[nH]c4ccc(Cl)cc34)C2)c(OC)c1 (configuration not stated)
27 | 751 | O=C(Cn1nc2nc(Nc3ccc(F)cc3)ccn2c1=O)Nc1ccc(F)cc1
28 | 539 | O=c1c(NCCc2cccnc2)nc2ccncc2n1Cc1ccccc1
29 | 994 | Cc1cc(NC(=O)c2cnc(-c3ccccc3)nc2-c2ccncc2)ccc1Br
30 | 856 | Cc1ccc(CC(=O)N2CCC(COc3ccc(C(=O)NC4CC4)cc3)CC2)cc1
31 | 1250 | CCCC(=O)Nc1sc2c(c1C(=O)Nc1ccccc1C)CCC2
32 | 1050 | CCn1cc(-c2nc(C(=O)Nc3ccc(C#N)cc3)cs2)c2cccnc21
33 | 1350 | Cc1ccc(-c2coc(-c3ccc(NS(=O)(=O)c4ccc(Cl)s4)cc3)n2)c(C)c1
34 | 921 | COc1ccc(OC)c(CNC(=O)c2c(O)c3cccnc3[nH]c2=O)c1
35 | 1050 | Cc1nc(-c2csc(S(=O)(=O)N3CCC(C(=O)N4CCc5ccccc5C4)CC3)c2)no1
36 | 610 | CCN1CCN(c2ccc(N3CCCC(C(=O)N4CCN(c5cccc(Cl)c5)CC4)C3)nn2)CC1 (configuration not stated)

Row | Compound | RP-LC retention time [s]
37 | CCOC(=O)c1c(N)n(Cc2ccccc2)c2nc3ccccc3nc12 | 739
